The conditions of experiment [1]: literature values, Monikawa et al.; cited from earlier work.
Experiment [2] deals with serum calcium concentration. The experiment is described as follows: Biological assay of calcitonin analogs in vivo: reduction of serum calcium concentration, 2×2 parallel line assay against synthetic salmon calcitonin standard. To be noted: rats, subcutaneous injection, blood withdrawn 1 hour later, vs synthetic salmon calcitonin standard. The method, then:
Biological Assay Of Calcitonin Analogs In Vivo
The biological potency of Ser^6, des-Leu^19 -salmon calcitonin was determined by comparing the reduction of serum calcium concentration which followed administration by graded doses of Ser^6, des-Leu^19 SCT and synthetic salmon calcitonin standard. Rats were divided into four groups of seven animals, and each group was assigned at random to a dose of standard or test solution. Low and high doses where chosen from the linear portion of the dose-response curve. For the salmon calcitonin standard, the values were 0.7 and 2.1 ng. peptide/100 g. body weight (BW). This dose approximates 3 and 9 MU/100 g. BW. Peptides were given by subcutaneous injection (0.2 ml/100 g. BW) and blood was withdrawn 1 hour later for serum calcium determination. Sera are processed and analyzed within two hours of collection. […]. Results were analyzed by a 2×2 parallel line assay [Gaddum, J. H., J. Pharm. Pharmacol., 5, 345 (1953)]. The standard salmon calcitonin used was independently determined to contain greater than 4,000 IU/mg. Ser^6,des-Leu^19 -SCT assayed at 8400 IU/mg.

Bridge positions count the residues as written; N and C are the ends. Ends that are not written are not given here.

“(1,7-α-L-aminosuberic acid)eel calcitonin”: in experiment [1], the hypocalcemic potency entry is “about 3400 IU/mg”.

Consider “6-serine, des-19-leucine-salmon calcitonin [Ser^6,des-Leu^19 -SCT]”, for which the “biological potency (reduction of serum calcium concentration)” value in experiment [2] is 8400 IU/mg.

For the substance “eel calcitonin (CSNLSTCVLGKLSQELHKLQTYPRTDVGAGTP-NH2; disulfide 1-7; ends not checked; UniProt P01262 1-32, looked up) [synthetic eel calcitonin, synthetic eel calcitonin from Monikawa et al]”, in experiment [1], the hypocalcemic potency entry is “around 4300 IU/mg”.
